Laboratory results as given in patent US8211945B2, “Carba-sugar amine derivative and glycolipid metabolic disorder treating agent containing the same as active ingredient” (Seikagaku Corporation, priority 2001, dated 2012).
Where a chain is given by its changes, count along the chain named.

What was measured:
Experiment in all cases: Mutant β-galactosidase activity in model cells, 4 days culture
Type in all cases: cell-based
[1] = target: T1, human mutant β-galactosidase I51T (Homo sapiens, UniProt P16278, I51T)
T1 construct: expressed in transfected cells; host or cells: SV40-immortalized skin fibroblasts of a β-galactosidase-deficient knockout mouse
T1 sequence (P16278 29-677 I51T): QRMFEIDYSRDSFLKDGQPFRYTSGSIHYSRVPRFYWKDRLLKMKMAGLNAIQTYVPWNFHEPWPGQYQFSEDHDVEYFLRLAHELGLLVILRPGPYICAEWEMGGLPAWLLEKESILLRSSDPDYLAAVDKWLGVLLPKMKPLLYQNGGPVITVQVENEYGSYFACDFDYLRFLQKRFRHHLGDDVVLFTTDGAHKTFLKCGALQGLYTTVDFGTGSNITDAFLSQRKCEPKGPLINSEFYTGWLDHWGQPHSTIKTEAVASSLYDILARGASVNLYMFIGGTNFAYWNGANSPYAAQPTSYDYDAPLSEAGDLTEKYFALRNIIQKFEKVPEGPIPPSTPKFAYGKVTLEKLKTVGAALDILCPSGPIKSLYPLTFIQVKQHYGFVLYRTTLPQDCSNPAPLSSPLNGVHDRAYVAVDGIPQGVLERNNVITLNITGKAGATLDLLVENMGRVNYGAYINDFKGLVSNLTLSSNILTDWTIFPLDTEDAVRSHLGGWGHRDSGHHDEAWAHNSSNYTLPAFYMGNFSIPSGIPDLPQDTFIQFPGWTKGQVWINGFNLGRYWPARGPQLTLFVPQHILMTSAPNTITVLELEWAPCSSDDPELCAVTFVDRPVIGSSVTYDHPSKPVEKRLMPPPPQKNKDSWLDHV
Source text: (§1) Cultured skin fibroblasts of a β-galactosidase-deficient knockout mouse was immortalized by introducing an SV40 viral gene, and enzyme genes integrated into pSV2neo and an expression vector were also introduced simultaneously, thereby establishing a model cell (Brain Dev., 23(5), 284-287, 2001). The genes used are human normal (GP8) and mutant β-galactosidase gene Y316C, G123R (infantile GM1-gangliosidosis), R201C (juvenile GM1-gangliosidosis), 151T, T82M, R201H, R263S, R457Q (adult GM1-gangliosidosis), W273L, Y83H, R482H and R482C (Morquio-B disease) (Hum. Genet., 93(2), 109-114, 1994).
(§2) As a control substance, 0.5 mM N-(n-butyl)-deoxygalactonojirimycin (NB-DGJ: The Journal of Biological Chemistry, 269, 27108-27114 (1994)) was used, and the substance 18 of the present invention was used in an amount of 0.2 μM.
(§3) Specifically, after culturing the model cell for 4 days using a cell culture medium (10% FCS DMEM) containing the substance 18 of the present invention, the resulting cells were recovered and diluted such that the amount of protein in the suspension became a predetermined level, and then enzyme activity in the diluted suspension was measured. Using 4-methylumbelliferyl-β-D-galactopyranoside as the fluorescent substrate, the enzyme activity during 30 minutes was measured at 37° C.

[2] = target: T2, human mutant β-galactosidase R201C (Homo sapiens, UniProt P16278, R201C)
T2 construct: from tissue
T2 sequence (P16278 29-677 R201C): T1 sequence (P16278 29-677 I51T) with T23I, R173C
Source text: as §1, §2, §3

[3] = target: T3, human mutant β-galactosidase R201H (Homo sapiens, UniProt P16278, R201H)
T3 construct: expressed in transfected cells; host or cells: SV40-immortalized skin fibroblasts of a β-galactosidase-deficient knockout mouse
T3 sequence (P16278 29-677 R201H): T1 sequence (P16278 29-677 I51T) with T23I, R173H
Source text: as §1, §2, §3

SMILES	Relative ratio (×100%) ([1]; I51T, substance 18 vs control)	enzyme activity ([1]; transferred gene I51T, 0.2 μM, 4 days)	enzyme activity increased in comparison with the control ([2]; R201C, 0.2 μM)	Relative ratio (×100%) ([2]; R201C, substance 18 vs control)	enzyme activity ([2]; transferred gene R201C, 0.2 μM, 4 days)	enzyme activity increased in comparison with the control ([3]; R201H, 0.2 μM)	Relative ratio (×100%) ([3]; R201H, substance 18 vs control)	enzyme activity ([3]; transferred gene R201H, 0.2 μM, 4 days)	enzyme activity, Control ([1]; transferred gene I51T, control substance 0.5 mM NB-DGJ)	enzyme activity, Control ([2]; transferred gene R201C, control substance 0.5 mM NB-DGJ)	enzyme activity, Control ([3]; transferred gene R201H, control substance 0.5 mM NB-DGJ)
CCCCCCCCN[C@@H]1C=C(CO)[C@H](O)C(O)[C@@H]1O (stereo partly drawn) [Substance 18, N-octyl-5a-carba-α-L-arabino-hexo-5(5a)-enopyranosylamine]	3.08 ×100%	4.37	≥ 150%	2.43 ×100%	48.88	≥ 150%	4.46 ×100%	86.05	–	–	–
CCCCN1C[C@H](O)[C@@H](O)[C@@H](O)[C@H]1CO [Control, N-(n-butyl)-deoxygalactonojirimycin, reference compound]	–	–	–	–	–	–	–	–	1.42	20.16	19.28
